Measurements: the supplement of paper PMC11061612

Experiments:
[1] = compound: C1CN(CCC1(C(=O)N[C@@H](CCO)C2=CC=C(C=C2)Cl)N)C3=NC=NC4=C3C=CN4 [Capivasertib]; details: max 3 µM
Summary of the method: (§1)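 Plates with 1536 wells received cancer cell lines in 7.5 μl of DMEM/F12 or RPMI containing 10% FBS. After 24 hours at 37°C and 5% CO2, cells were dosed for 72 hours with final DMSO typically 0.2%, and viability was read by CellTiter-Glo 2.0 luminescence scaled between blank-well and DMSO-well means. The single-agent IC50 was taken from a logistic fit of the dose responses made with a non-linear mixed effects model, that logistic curve having two parameters.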

[2] = compound: Cn1cnc2c(F)c(Nc3ccc(Br)cc3Cl)c(C(=O)NOCCO)cc21 [Selumetinib]
Summary of the method: as §1

[3] = compound: CCN(CCO)CCCOc1ccc2c(Nc3cc(CC(=O)Nc4cccc(F)c4)[nH]n3)ncnc2c1 [AZD2811]; details: max 1 µM
Summary of the method: as §1

[4] = compound: CC1(C)CCC(CN2CCN(c3ccc(C(=O)NS(=O)(=O)c4ccc(NCC5CCOCC5)c([N+](=O)[O-])c4)c(Oc4cnc5[nH]ccc5c4)c3)CC2)=C(c2ccc(Cl)cc2)C1 [Venetoclax]; details: max 1 µM
Summary of the method: as §1

[5] = compound: COc1cccc(OCCCN)c1-c1cc(Nc2cnc(C#N)cn2)n[nH]1 [Prexasertib]; details: max 1 µM
Summary of the method: as §1

[6] = compound: CN(CC[C@H](CSC1=CC=CC=C1)NC2=C(C=C(C=C2)S(=O)(=O)NC(=O)C3=CC=C(C=C3)N4CCC(CC4)[C@H](C5=CC=CC=C5C6=CC=C(C=C6)Cl)O)S(=O)(=O)C(F)(F)F)CCO [AZD4320]; details: max 1 µM
Summary of the method: as §1

[7] = compound: Cc1c2c(nn1C)CSCc1cc(n(C)n1)CSc1cc(c3ccccc3c1)OCCCc1c(C(=O)O)n(C)c3c-2c(Cl)ccc13 [AZD5991]; details: max 1 µM
Summary of the method: as §1

[8] = compound: C[C@@H](Nc1cc(F)cc(F)c1)c1cc(C(=O)N(C)C)cc2c(=O)cc(N3CCOCC3)oc12 [AZD8186]
Summary of the method: as §1

[9] = compound: Cc1nc(-c2cn3c(n2)-c2ccc(-c4cnn(C(C)(C)C(N)=O)c4)cc2OCC3)n(C(C)C)n1 [Taselisib]; details: max 10 µM
Summary of the method: as §1

[10] = compound: C=CCn1c(=O)c2cnc(Nc3ccc(N4CCN(C)CC4)cc3)nc2n1-c1cccc(C(C)(C)O)n1 [AZD1775]
Summary of the method: as §1

[11] = compound: COc1cccc2c1C(=O)c1c(O)c3c(c(O)c1C2=O)C[C@@](O)(C(=O)CO)C[C@@H]3O[C@H]1C[C@H](N)[C@H](O)[C@H](C)O1 [Doxorubicin]; details: max 1 µM
Summary of the method: as §1

[12] = compound: COc1cc(Nc2ncc3c(n2)-c2ccc(Cl)cc2C(c2c(F)cccc2OC)=NC3)ccc1C(=O)O [Alisertib]; details: max 10 µM
Summary of the method: as §1

[13] = compound: CC1=CN2[C@@H](C1)C=NC3=CC(=C(C=C3C2=O)OC)OCCCCCOC4=C(C=C5C(=C4)N=C[C@@H]6CC(=CN6C5=O)C)OC [SG3199]; details: max 0.001 µM
Summary of the method: as §1

[14] = compound: CCc1c2c(nc3ccc(O)cc13)-c1cc3c(c(=O)n1C2)COC(=O)[C@]3(O)CC [SN-38]; details: max 0.3 µM
Summary of the method: as §1

[15] = compound: CN(C)CCCOc1ccc(-c2ccc3ncc4c(c3c2)n(C2CCOCC2)c(=O)n4C)cn1 [AZD0156]
Summary of the method: as §1

[16] = compound: C[C@@H]1COCCN1C2=NC(=NC(=C2)C3(CC3)[S@](=N)(=O)C)C4=C5C=CNC5=NC=C4 [AZD6738]; details: max 10 µM
Summary of the method: as §1

[17] = compound: O=C(c1cc(Cc2n[nH]c(=O)c3ccccc23)ccc1F)N1CCN(C(=O)C2CC2)CC1 [Olaparib]; details: max 10 µM
Summary of the method: as §1

[18] = compound: Cc1cc2ncnn2cc1Nc1ncc2c(n1)n(C1CCOCC1)c(=O)n2C [AZD7648]; details: max 10 µM
Summary of the method: as §1

[19] = compound: CC(=O)Nc1cccc(-n2c(=O)n(C3CC3)c(=O)c3c(Nc4ccc(I)cc4F)n(C)c(=O)c(C)c32)c1 [Trametinib]; details: max 1 µM
Summary of the method: as §1

[20] = compound: COc1cc([C@@H]2c3cc4c(cc3[C@@H](O[C@@H]3O[C@@H]5CO[C@@H](C)O[C@H]5[C@H](O)[C@H]3O)[C@H]3COC(=O)[C@H]23)OCO4)cc(OC)c1O [Etoposide]; details: max 10 µM
Summary of the method: as §1

[21] = compound: C1CC(C1)(C(=O)[O-])C(=O)[O-].N.N.[Pt+2] [Carboplatin]; details: max 10 µM
Summary of the method: as §1

[22] = compound: NC1(c2ccc(-c3nc4ccn5c(=O)[nH]nc5c4cc3-c3ccccc3)cc2)CCC1 [MK-2206]; details: max 10 µM
Summary of the method: as §1

[23] = compound: CC1=C(C(=CC=C1)Cl)NC(=O)C2=CN=C(S2)NC3=CC(=NC(=N3)C)N4CCN(CC4)CCO [Dasatinib]; details: max 2 µM
Summary of the method: as §1

[24] = compound: CC(C)n1c(=O)n(C)c2cnc3cc(F)c(-c4ccc(OCCCN5CCCCC5)nc4)cc3c21 [AZD1390]; details: max 0.3 µM
Summary of the method: as §1

[25] = compound: N#Cc1cnc(Nc2cc(NC[C@H]3CNCCO3)c(C(F)(F)F)cn2)cn1 [SRA737]; details: max 10 µM
Summary of the method: as §1

[26] = compound: C1CN(CCC1(C(=O)N[C@@H](CCO)C2=CC=C(C=C2)Cl)N)C3=NC=NC4=C3C=CN4 [AZD5363]; details: max 10 µM
Summary of the method: as §1

[27] = compound: COc1cc2ncnc(Nc3ccc(F)c(Cl)c3)c2cc1OCCCN1CCOCC1 [Gefitinib]; details: max 10 µM
Summary of the method: as §1

[28] = compound: C[C@@H](c1ccc2nccn2c1)n1nnc2ncc(-c3cnn(C)c3)nc21 [Savolitinib]; details: max 1 µM
Summary of the method: as §1

[29] = compound: Nc1ccn([C@@H]2O[C@H](CO)[C@@H](O)C2(F)F)c(=O)n1 [Gemcitabine]; details: max 0.3 µM
Summary of the method: as §1

[30] = compound: CS(=O)(=O)CCNCc1ccc(-c2ccc3ncnc(Nc4ccc(OCc5cccc(F)c5)c(Cl)c4)c3c2)o1 [Lapatinib]; details: max 10 µM
Summary of the method: as §1

[31] = compound: O=c1[nH]cc(F)c(=O)[nH]1 [5-Fluorouracil]; details: max 20 µM
Summary of the method: as §1

[32] = compound: CC(=O)c1c(C)c2cnc(Nc3ccc(N4CCNCC4)cn3)nc2n(C2CCCC2)c1=O [Palbociclib]; details: max 10 µM
Summary of the method: as §1

[33] = compound: C[C@@H](Oc1cc(-c2cnn(C3CCNCC3)c2)cnc1N)c1c(Cl)ccc(F)c1Cl [Crizotinib]; details: max 10 µM
Summary of the method: as §1

[34] = compound: CC(=O)O[C@H]1C(=O)[C@@]2(C)[C@H]([C@H](OC(=O)c3ccccc3)[C@]3(O)C[C@H](OC(=O)[C@H](O)[C@@H](NC(=O)c4ccccc4)c4ccccc4)C(C)=C1C3(C)C)[C@]1(OC(C)=O)CO[C@@H]1C[C@@H]2O [Paclitaxel]; details: max 3 µM
Summary of the method: as §1

[35] = compound: COc1nnc2ccc(N3CCC(c4ccc(OCCN5CCN(C)C(=O)[C@H]5C)cc4)CC3)nn12 [AZD5153]; details: max 1 µM
Summary of the method: as §1

[36] = compound: O=C(Nc1ccc2[nH]nc(-c3ccncc3)c2c1)[C@@H]1CCN(CC(=O)N2CCN(c3ccc(-c4ncccn4)cc3)CC2)C1; details: max 5 µM
Summary of the method: as §1

Cell Line	IC50, cell viability 72 h [1]	IC50, cell viability 72 h ([2]; max 3 µM)	IC50, cell viability 72 h [3]	IC50, cell viability 72 h [4]	IC50, cell viability 72 h [5]	IC50, cell viability 72 h [6]	IC50, cell viability 72 h [7]	IC50, cell viability 72 h ([8]; max 3 µM)	IC50, cell viability 72 h [9]	IC50, cell viability 72 h ([10]; max 1 µM)	IC50, cell viability 72 h [11]	IC50, cell viability 72 h [12]	IC50, cell viability 72 h [13]	IC50, cell viability 72 h [14]	IC50, cell viability 72 h ([15]; max 1 µM)	IC50, cell viability 72 h [16]	IC50, cell viability 72 h [17]	IC50, cell viability 72 h [18]	IC50, cell viability 72 h [19]	IC50, cell viability 72 h [20]	IC50, cell viability 72 h [21]	IC50, cell viability 72 h [22]	IC50, cell viability 72 h ([2]; max 10 µM)	IC50, cell viability 72 h ([8]; max 10 µM)	IC50, cell viability 72 h [23]	IC50, cell viability 72 h ([10]; max 3 µM)	IC50, cell viability 72 h [24]	IC50, cell viability 72 h [25]	IC50, cell viability 72 h [26]	IC50, cell viability 72 h [27]	IC50, cell viability 72 h [28]	IC50, cell viability 72 h [29]	IC50, cell viability 72 h [30]	IC50, cell viability 72 h [31]	IC50, cell viability 72 h ([15]; max 3 µM)	IC50, cell viability 72 h [32]	IC50, cell viability 72 h [33]	IC50, cell viability 72 h [34]	IC50, cell viability 72 h [35]	IC50, cell viability 72 h [36]
CTB-1 (B-Cell Non-Hodgkin's Lymphoma)	> 3000 nM	> 3000 nM	249 nM	> 1000 nM	16.4 nM	> 1000 nM	> 1000 nM	> 3000 nM	> 10000 nM	388 nM	248 nM	435 nM	> 1 nM	7.48 nM	> 1000 nM	2010 nM	> 10000 nM	> 10000 nM	> 1000 nM																					
RKO (Colorectal Carcinoma)			> 1000 nM	> 1000 nM	35.4 nM	> 1000 nM	> 1000 nM		2950 nM		240 nM	7230 nM	> 1 nM	16.5 nM		2040 nM	> 10000 nM	> 10000 nM	75.3 nM	6790 nM	> 10000 nM	> 10000 nM	6520 nM	> 10000 nM	> 2000 nM	787 nM	> 300 nM	7180 nM	5240 nM	> 10000 nM	> 1000 nM	9.84 nM	> 10000 nM	8590 nM	> 3000 nM	> 10000 nM	9500 nM	3.91 nM	67.2 nM	797 nM
RPMI-6666 (Non-Cancerous)			469 nM	174 nM	5.81 nM	37.1 nM	731 nM		621 nM		58.3 nM	406 nM	> 1 nM	2.31 nM		3900 nM	> 10000 nM	> 10000 nM	> 1000 nM	401 nM	> 10000 nM	4640 nM	> 10000 nM	1330 nM	170 nM	234 nM	> 300 nM	2460 nM	2950 nM	> 10000 nM	> 1000 nM	5.75 nM	> 10000 nM	3430 nM	> 3000 nM	8620 nM	6930 nM	3.63 nM	154 nM	> 5000 nM
RT-112 (Bladder Carcinoma)			> 1000 nM	> 1000 nM	31.2 nM	> 1000 nM	413 nM		2950 nM		> 1000 nM	2220 nM	> 1 nM	255 nM		4410 nM	> 10000 nM	> 10000 nM	305 nM	> 10000 nM	> 10000 nM	> 10000 nM	> 10000 nM	> 10000 nM	> 2000 nM	549 nM	> 300 nM	> 10000 nM	> 10000 nM	> 10000 nM	> 1000 nM	291 nM	> 10000 nM	> 20000 nM	> 3000 nM	> 10000 nM	> 10000 nM	9.52 nM	> 1000 nM	3600 nM
SH-4 (Melanoma)			> 1000 nM	> 1000 nM	187 nM	> 1000 nM	> 1000 nM		> 10000 nM		> 1000 nM	> 10000 nM	> 1 nM	> 300 nM		> 10000 nM	> 10000 nM	> 10000 nM	2.59 nM	> 10000 nM	> 10000 nM	> 10000 nM	259 nM	> 10000 nM	> 2000 nM	1490 nM	> 300 nM	> 10000 nM	> 10000 nM	> 10000 nM	> 1000 nM	> 300 nM	> 10000 nM	> 20000 nM	> 3000 nM	> 10000 nM	> 10000 nM	2550 nM	432 nM	111 nM
SIMA (Neuroblastoma)	> 3000 nM	> 3000 nM	> 1000 nM	> 1000 nM	7.67 nM	299 nM	> 1000 nM	> 3000 nM			706 nM		> 1 nM	3.66 nM		2350 nM	> 10000 nM	> 10000 nM								211 nM									> 3000 nM					
